# Patent publication US7906137B2, “Delivery agents for enhancing mucosal absorption of therapeutic agents” (Mediplex Corporation, Korea, priority 2004, dated 2011)
# Molecular target: insulin (Homo sapiens, UniProt P01308)
# Assay: Dissociation of high order protein aggregates by circular dichroism
# Type: physicochemical
# Conditions: 0.18 mM insulin, 0.18-37 mM MP-DCK, CD 300 to 250 nm, room temperature (FIG. 5)
# Procedure: A circular dichroism spectropolarimeter (Jasco J-715, Tokyo, Japan) was used to measure the effect of a delivery carrier on the aggregation state of insulin. Solutions containing 0.18 mM insulin and different concentration of MP-DCK (0.18-37 mM) were scanned from 300 to 250 nm at room temperature at a scanning speed of 50 nm/min using a cuvette with a pathlength of 0.1 cm. The results of the test are illustrated in FIG. 5.
# Sequence of insulin (P01308 25-54 limits assumed): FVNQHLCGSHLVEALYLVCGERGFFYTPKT
# Sequence of insulin (P01308 90-110 limits assumed): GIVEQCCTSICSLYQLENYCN
smiles,measurement,value
"COC(=O)[C@H](CCCCN)NC(=O)CC[C@@H](C)[C@H]1CC[C@H]2[C@@H]3CC[C@@H]4C[C@H](O)CC[C@]4(C)[C@H]3C[C@H](O)[C@]12C [DCK, N^α-deoxychoyl-L-lysine-methylester]",aggregation state of insulin,decrease the aggregation state of the insulin
